The test deals with T1, Neuromedin-K receptor (Homo sapiens, UniProt P29371).
T1 sequence (P29371 whole entry): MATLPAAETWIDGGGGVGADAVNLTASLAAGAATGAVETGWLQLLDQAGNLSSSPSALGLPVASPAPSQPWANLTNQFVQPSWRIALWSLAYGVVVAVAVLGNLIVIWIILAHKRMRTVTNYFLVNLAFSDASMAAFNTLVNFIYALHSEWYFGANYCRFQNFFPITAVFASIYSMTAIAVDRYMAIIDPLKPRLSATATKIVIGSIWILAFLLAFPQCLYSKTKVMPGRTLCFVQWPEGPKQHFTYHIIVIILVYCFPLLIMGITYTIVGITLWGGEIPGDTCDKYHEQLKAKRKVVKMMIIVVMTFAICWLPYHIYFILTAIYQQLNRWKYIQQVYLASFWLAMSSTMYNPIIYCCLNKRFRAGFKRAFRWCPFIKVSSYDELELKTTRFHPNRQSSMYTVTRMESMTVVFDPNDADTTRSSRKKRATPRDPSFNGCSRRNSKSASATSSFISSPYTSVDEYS
The test can be described thus: Binding affinity to human NK3 receptor expressed in CHO cells. The class given is cell-based.

We go through 1 compound from ChEMBL document CHEMBL1926671, “3D-Quantitative structure-activity relationship and docking studies of the tachykinin NK3 receptor” (Bioorg Med Chem Lett, 2011).

SMILES strings stand for the structures.

Turning to `CCCCC(NC(=O)c1cc(-c2ccccc2)nc2ccccc12)c1ccccc1` (stereo unspecified), the affinity corresponds to a Ki of 158 nM.
